Laboratory results published in US20260068882A1, “ARTHROPOD CONTROLLING COMPOSITION” (Firmenich SA, priority 2019, published 2026).

How the values were obtained:
Ixodes ricinus = assay: In vitro Warm Plate Assay for ticks; assay type: in vivo
In short: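 Repellency against last-stage Ixodes ricinus nymphs in an in vitro warm plate assay, compounds diluted in ethanol at 0.4 and 10 mg/mL, 0.0016% to 1%, or 20% (w/w). Ticks walking down or falling from the treated plate scored as affected, walking up as unaffected; groups of 12 ticks, n=2-5.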

Aedes aegypti = assay: In vitro Warm Body assay, mosquitoes landing on treated warm body; assay type: in vivo; conditions: for % of mosquitoes' repellency: normalised to landing with 100% ethanol
In short: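 Adapted Warm Body assay with host-seeking, non-blood-fed, sugar-fed A. aegypti Rockefeller females aged 5–10 days (10–12 days in one set); cages held 30 (or 25) females at 150 lux. Landings were counted automatically. Doses in ethanol were 0.0016%, 0.04% and 1% in triplicate, or a single replicate across 0.0016–1%.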

[1] = 20% (w/w) in ethanol, 0.25 h post-application
[2] = 20% (w/w) in ethanol, 0.5 h post-application
[3] = 20% (w/w) in ethanol, 1 h post-application
[4] = 20% (w/w) in ethanol, 2 h post-application
[5] = 20% (w/w) in ethanol, 4 h post-application
[6] = 20% (w/w) in ethanol, 6 h post-application
[7] = 0.0016% in ethanol (Table 7, one replicate)
[8] = 0.008% in ethanol (Table 7, one replicate)
[9] = 0.0119% in ethanol (Table 7, one replicate)
[10] = 0.04% in ethanol (Table 7, one replicate)
[11] = 0.0598% in ethanol (Table 7, one replicate)
[12] = 0.2% in ethanol (Table 7, one replicate)
[13] = 1% in ethanol (Table 7, one replicate)

Which “MEAN % affected (ticks)” value (Ixodes ricinus; 0.4 mg/mL in ethanol (Table 5)) does the source give for `CCN(CC)C(=O)c1cccc(C)c1` [DEET, N,N-diethyl-3-methylbenzamide, reference compound] here?
Its value is 50%.

What about the “MEAN % affected (ticks)” value (Ixodes ricinus; 10 mg/mL in ethanol (Table 5)) of the same compound?
Its value is 96%.

What about the “% of mosquitoes' repellency” value (Aedes aegypti; 0.00032% concentration) of the same compound?
Its value is 17%.

And the “% of mosquitoes' repellency” value (Aedes aegypti; 0.00071% concentration)?
Its value is 10%.

And the “% of mosquitoes' repellency” value (Aedes aegypti; 0.0016% concentration)?
Its value is 5%.

What about the “mean ± SD numbers of mosquitoes landed on the Warm Body” value (“mean ± SD numbers of mosquitoes landed” below) (Aedes aegypti; 0.0016% dilution (Table 4)) of the same compound?
Its value is 53.3 ± 12.5.

And the “% of mosquitoes' repellency” value (Aedes aegypti; 0.0036% concentration)?
The value was 19%.

And the “% of mosquitoes' repellency” value (Aedes aegypti; 0.0053% concentration)?
Its value is 46%.

And the “% of mosquitoes' repellency” value (Aedes aegypti; 0.0080% concentration)?
Its value is 61%.

What about the “% of mosquitoes' repellency” value (Aedes aegypti; 0.018% concentration) of the same compound?
Its value is 79%.

And the “% of mosquitoes' repellency” value (Aedes aegypti; 0.040% concentration)?
Its value is 89%.

And the “mean ± SD numbers of mosquitoes landed” value (Aedes aegypti; 0.04% dilution (Table 4))?
Its value is 5.7 ± 1.0.

And the “% of mosquitoes' repellency” value (Aedes aegypti; 0.089% concentration)?
The value was 97%.

What about the “% of mosquitoes' repellency” value (Aedes aegypti; 0.20% concentration) of the same compound?
The value was 98%.

What about the “% of mosquitoes' repellency” value (Aedes aegypti; 0.45% concentration) of the same compound?
Its value is 95%.

And the “% of mosquitoes' repellency” value (Aedes aegypti; 1% concentration)?
Its value is 97%.

What about the “mean ± SD numbers of mosquitoes landed” value (Aedes aegypti; 1% dilution (Table 4)) of the same compound?
The value was 0.7 ± 0.3.

What about the pest or weed control at 0.04 % (Aedes aegypti; Aedes aegypti, 0.04% in ethanol (FIG. 8), read-out: decrease of landings) of the same compound?
Its pest or weed control at 0.04 % is 92%.

Which results are given for `CCCCN(CCC(=O)OCC)C(C)=O` [IR3535, 3-[N-n-butyl-N-acetyl]aminopropionic acid ethylester, reference compound]?
percentage of ticks affected on the Warm Plate (Ixodes ricinus; 0.0016% in ethanol (Table 12)): 0%; percentage of ticks affected on the Warm Plate (Ixodes ricinus; 0.0053% in ethanol (Table 12)): 0%; percentage of ticks affected on the Warm Plate (Ixodes ricinus; 0.008% in ethanol (Table 12)): 8%; percentage of ticks affected on the Warm Plate (Ixodes ricinus; 0.0119% in ethanol (Table 12)): 0%; percentage of ticks affected on the Warm Plate (Ixodes ricinus; 0.0178% in ethanol (Table 12)): 0%; percentage of ticks affected on the Warm Plate (Ixodes ricinus; 0.0267% in ethanol (Table 12)): 0%; percentage of ticks affected on the Warm Plate (Ixodes ricinus; 0.04% in ethanol (Table 12)): 33%; percentage of ticks affected on the Warm Plate (Ixodes ricinus; 0.0598% in ethanol (Table 12)): 12%; percentage of ticks affected on the Warm Plate (Ixodes ricinus; 0.089% in ethanol (Table 12)): 46%; percentage of ticks affected on the Warm Plate (Ixodes ricinus; 0.2% in ethanol (Table 12)): 57%; percentage of ticks affected on the Warm Plate (Ixodes ricinus; 0.447% in ethanol (Table 12)): 53%; percentage of ticks affected on the Warm Plate (Ixodes ricinus; 1% in ethanol (Table 12)): 56%; percentage of ticks affected overtime (Ixodes ricinus; [1]): 83%; percentage of ticks affected overtime (Ixodes ricinus; [2]): 40%; percentage of ticks affected overtime (Ixodes ricinus; [3]): 83%; percentage of ticks affected overtime (Ixodes ricinus; [4]): 58%; percentage of ticks affected overtime (Ixodes ricinus; [5]): 58%; percentage of ticks affected overtime (Ixodes ricinus; [6]): 0%; ticks affected (Ixodes ricinus; dose of 0.89%): 46%; % of mosquitoes' repellency (Aedes aegypti; 0.00032% concentration): 8%; % of mosquitoes' repellency (Aedes aegypti; 0.0016% concentration): 0%; mean ± SD numbers of mosquitoes landed on the Warm Body (Aedes aegypti; 0.0016% dilution (Table 4)): 70.0 ± 14.3; number of mosquitoes landed on the Warm Body (Aedes aegypti; [7]): 70; % of mosquitoes' repellency (Aedes aegypti; 0.0080% concentration): 0%; number of mosquitoes landed on the Warm Body (Aedes aegypti; [8]): 63; number of mosquitoes landed on the Warm Body (Aedes aegypti; [9]): 22; % of mosquitoes' repellency (Aedes aegypti; 0.040% concentration): 69%; mean ± SD numbers of mosquitoes landed on the Warm Body (Aedes aegypti; 0.04% dilution (Table 4)): 20.7 ± 2.1; number of mosquitoes landed on the Warm Body (Aedes aegypti; [10]): 21; number of mosquitoes landed on the Warm Body (Aedes aegypti; [11]): 6; % of mosquitoes' repellency (Aedes aegypti; 0.20% concentration): 78%; number of mosquitoes landed on the Warm Body (Aedes aegypti; [12]): 9; number of mosquitoes landed on the Warm Body (Aedes aegypti; 0.447% in ethanol (Table 7, one replicate)): 0; % of mosquitoes' repellency (Aedes aegypti; 1% concentration): 89%; mean ± SD numbers of mosquitoes landed on the Warm Body (Aedes aegypti; 1% dilution (Table 4)): 7.7 ± 1.6; number of mosquitoes landed on the Warm Body (Aedes aegypti; [13]): 8; repulsion (in words) (Aedes aegypti; concentrations lower than 0.04%): only low repulsion

Which “percentage of ticks affected overtime” value (Ixodes ricinus; [1]) does the source give for `CC1CCC(C(C)(C)O)C(O)C1` (centres unmarked) [PMD, 2-(2-hydroxypropan-2-yl)-5-methylcyclohexan-1-ol, reference compound] here?
The value was 42%.

And the “percentage of ticks affected overtime” value (Ixodes ricinus; [2])?
Its value is 42%.

And the “percentage of ticks affected overtime” value (Ixodes ricinus; [3])?
The value was 83%.

And the “percentage of ticks affected overtime” value (Ixodes ricinus; [4])?
Its value is 50%.

And the “percentage of ticks affected overtime” value (Ixodes ricinus; [5])?
Its value is 8%.

What about the “percentage of ticks affected overtime” value (Ixodes ricinus; [6]) of the same compound?
The value was 17%.

What about the “ticks' repellency overtime (in words)” value (Ixodes ricinus; 20% (w/w) in ethanol, Table 14) of the same compound?
The value was “not efficient during these first time points”.

What about the pest or weed control at 0.0016 % (Ixodes ricinus; Ixodes ricinus, 0.0016% in ethanol (Table 12), read-out: percentage of ticks affected on the Warm Plate) of the same compound?
The pest or weed control at 0.0016 % was 0%.

And the pest or weed control at 0.0053 % (Ixodes ricinus; Ixodes ricinus, 0.0053% in ethanol (Table 12), read-out: percentage of ticks affected on the Warm Plate)?
The pest or weed control at 0.0053 % was 12%.

And the pest or weed control at 0.008 % (Ixodes ricinus; Ixodes ricinus, 0.008% in ethanol (Table 12), read-out: percentage of ticks affected on the Warm Plate)?
The pest or weed control at 0.008 % was 4%.

What about the pest or weed control at 0.0119 % (Ixodes ricinus; Ixodes ricinus, 0.0119% in ethanol (Table 12), read-out: percentage of ticks affected on the Warm Plate) of the same compound?
Its pest or weed control at 0.0119 % is 4%.

What about the pest or weed control at 0.0178 % (Ixodes ricinus; Ixodes ricinus, 0.0178% in ethanol (Table 12), read-out: percentage of ticks affected on the Warm Plate) of the same compound?
Its pest or weed control at 0.0178 % is 4%.

What about the pest or weed control at 0.0267 % (Ixodes ricinus; Ixodes ricinus, 0.0267% in ethanol (Table 12), read-out: percentage of ticks affected on the Warm Plate) of the same compound?
The pest or weed control at 0.0267 % was 0%.

And the pest or weed control at 0.04 % (Ixodes ricinus; Ixodes ricinus, 0.04% in ethanol (Table 12), read-out: percentage of ticks affected on the Warm Plate)?
The pest or weed control at 0.04 % was 12%.

And the pest or weed control at 0.0598 % (Ixodes ricinus; Ixodes ricinus, 0.0598% in ethanol (Table 12), read-out: percentage of ticks affected on the Warm Plate)?
The pest or weed control at 0.0598 % was 19%.

What about the pest or weed control at 0.089 % (Ixodes ricinus; Ixodes ricinus, 0.089% in ethanol (Table 12), read-out: percentage of ticks affected on the Warm Plate) of the same compound?
The pest or weed control at 0.089 % was 42%.

What about the pest or weed control at 0.2 % (Ixodes ricinus; Ixodes ricinus, 0.2% in ethanol (Table 12), read-out: percentage of ticks affected on the Warm Plate) of the same compound?
The pest or weed control at 0.2 % was 84%.

What about the pest or weed control at 0.447 % (Ixodes ricinus; Ixodes ricinus, 0.447% in ethanol (Table 12), read-out: percentage of ticks affected on the Warm Plate) of the same compound?
Its pest or weed control at 0.447 % is 96%.

And the pest or weed control at 1 % (Ixodes ricinus; Ixodes ricinus, 1% in ethanol (Table 12), read-out: percentage of ticks affected on the Warm Plate)?
The pest or weed control at 1 % was 96%.

What about the ticks affected (Ixodes ricinus; dose of 0.598%) of the same compound?
Its ticks affected is 19%.

And the reduction of landing (Aedes aegypti; 0.0016% (Table 7))?
The reduction of landing was 11%.

And the “number of mosquitoes landed on the Warm Body” value (“number of mosquitoes landed” below) (Aedes aegypti; [7])?
The value was 58.

What about the “number of mosquitoes landed” value (Aedes aegypti; [8]) of the same compound?
Its value is 40.

What about the “number of mosquitoes landed” value (Aedes aegypti; [9]) of the same compound?
The value was 36.

What about the “number of mosquitoes landed” value (Aedes aegypti; [10]) of the same compound?
Its value is 8.

What about the “number of mosquitoes landed” value (Aedes aegypti; [11]) of the same compound?
Its value is 1.

What about the “number of mosquitoes landed” value (Aedes aegypti; [12]) of the same compound?
The value was 1.

What about the “number of mosquitoes landed” value (Aedes aegypti; [13]) of the same compound?
Its value is 0.
